Earlier results as cited in US20250160636A1, “Mitigating Ocular Toxicity” (GlaxoSmithKline Intellectual Property Development Limited, priority 2022, published 2025).
Where two headings read alike, the source gives them in different places. Values belong to the compound of their own block, whether it stands above or below them.

Settings: for Vision disorder: n = 255, photopsia

Uveitis/Iritis (n = 586): 1%
Compound: CC(C)(C)c1nc(-c2cccc(NS(=O)(=O)c3c(F)cccc3F)c2F)c(-c2ccnc(N)n2)s1 [Dabrafenib]
Can cause (ocular toxicity issue) (in vivo): cystoid macula edema

Compound: COc1cc2ncnc(Nc3ccc(F)c(Cl)c3)c2cc1OCCCN1CCOCC1 [Gefitinib]
Mentions of (ocular toxicity issues) (full list, wrapped over lines: eye irritation, eye pain, corneal erosion/ulcer, aberrant eyelash growth, corneal membrane sloughing, and ocular ischemia/hemorrhage): Mentions of eye irritation, eye pain, corneal erosion/ulcer, aberrant eyelash

Reported Conjunctivitis (n = 84): 18%
Conjunctivitis (n = 485): 12%
Conjunctivitis Grade III (number of events, n = 485): 1
Compound: C#Cc1cccc(Nc2ncnc3cc(OCCOC)c(OCCOC)cc23)c1 [Erlotinib]
Keratoconjunctivitis Sicca (n = 485): n = 485 and Keratoconjunctivitis Sicca 12% n = 485. Mentions of corneal
pooled incidence of ocular disorders (one pancreatic cancer study): 12.8%
pooled incidence of ocular disorders (three lung cancer studies): 17.8%

Conjunctivitis (n = 229): 11%
Keratitis (n = 3865 patients): 0.8%
grade III event (number of events, n = 3865 patients): 1
Compound: CN(C)C/C=C/C(=O)Nc1cc2c(Nc3ccc(F)c(Cl)c3)ncnc2cc1O[C@H]1CCOC1 [Afatinib]

Compound: CC(C)C[C@H](NC(=O)[C@H](Cc1ccccc1)NC(=O)c1cnccn1)B(O)O [Bortezomib]
Case reports associated with (case reports): Case reports associated with eyelid chalazia.
Label mentions (ocular toxicity issues) (label): Label mentions diplopia, blurred vision, conjunctival infection, irritation.

Compound: C[C@@H](Oc1cc(-c2cnn(C3CCNCC3)c2)cnc1N)c1c(Cl)ccc(F)c1Cl [Crizotinib]
Vision disorder (includes diplopia, photophobia, vision blurred, visual field defect, visual impairment, vitreous floaters, visual brightness, and visual acuity reduced): Vision disorder 64% (Includes diplopia, photopsia, photophobia, vision blurred,

Compound: CC(=O)Nc1cccc(-n2c(=O)n(C3CC3)c(=O)c3c(Nc4ccc(I)cc4F)n(C)c(=O)c(C)c32)c1 [Trametinib]
Incidence of Retinal Veinous Occlusion (4/1,749): halo. Incidence of Retinal Veinous Occlusion was 0.2% (4/1,749).
Incidence of Retinal Pigment Epithelial Detachment (14/1,749): Incidence of Retinal Pigment Epithelial Detachment was 0.8% (14/1,749).
Mentions (ocular toxicity issues) (full list, wrapped over lines: blurry vision, dry eye, transient blindness, eye floaters, and visual halo): Mentions blurry vision, dry eye, transient blindness, eye floaters, and visual

Compound: Cc1cc(Nc2ncc(Cl)c(Nc3ccccc3S(=O)(=O)C(C)C)n2)c(OC(C)C)cc1C1CCNCC1 [Ceritinib]
Vision disorder (comprised of vision impairment, blurred vision, accommodation disorder, presbyopia, or reduced visual acuity): Vision disorder 9% (comprised of vision impairment, blurred vision, photopsia,

Compound: Pertuzumab
Mentions (ocular toxicity issues) (in vivo): Mentions increased lacrimation

Compound: CCCS(=O)(=O)Nc1ccc(F)c(C(=O)c2c[nH]c3ncc(-c4ccc(Cl)cc4)cc23)c1F [Vemurafenib]
Mentions (ocular toxicity issues) (in vivo): Mentions retinal vein occlusion, uveitis, blurry vision, iritis, and photophobia

Compound: Cc1cn(-c2cc(NC(=O)c3ccc(C)c(Nc4nccc(-c5cccnc5)n4)c3)cc(C(F)(F)F)c2)cn1 [Nilotinib]
Frequency class of vision impairment, vision blurred, visual acuity reduced, photopsia, eye irritation (in vivo): Uncommon: vision impairment, vision blurred, visual acuity reduced, photopsia,

Compound: Panitimumab
Conjunctivitis (in 463 patients): 4%
Eye/eyelid irritation (in 463 patients): 1%
increased lacrimation (in 463 patients): increased lacrimation (2%), in 463 patients
ocular hyperemia (in 463 patients): 3%

Compound: Rituximab
Mentions (ocular toxicity issues) (in vivo): Mentions uveitis and optic neuritis

Conjunctivitis (cohort not given): 0.1-1%
Visual disorder (visual disturbance, vision blurred, decreased visual acuity) or dry eye (in vivo): 1-10%
Compound: Cc1nc(Nc2ncc(C(=O)Nc3c(C)cccc3Cl)s2)cc(N2CCN(CCO)CC2)n1 [Dasatinib]

Compound: COc1cc2c(Nc3ccc(Br)cc3F)ncnc2cc1OCC1CCN(C)CC1 [Vandetanib]
Blurry vision (corneal opacities) (No cohort information): Blurry vision (corneal opacities) 9%. No cohort information.
